# Assays:
# 4T1 cells tumors = details: fusion peptide 1 mg/kg intravenous every other day combined with CD20 monoclonal antibody GA101 30 mg/kg intraperitoneal twice a week; 4T1 tumors, Balb/c mice
# Procedure: 4T1 cells were inoculated into mouse breasts, 2×10^6 cells/mouse, 50 μl volume.
# (§1) When the tumor grows to 50mm^3, treatment was started.
# (§2) The tumor volume and mouse body weight were measured every 3 days.
# When the tumor volume in the control group reached 1000 mm^3, the administration was terminated.
# When the tumor grows to 50mm^3, treatment was started. There are four groups: CD20-var3/GA101 group (10), GA101 group (5), CD20-var3 group (5), PBS group (10).
# Administration method: CD20-var3, 1 mg/kg, intravenous injection, every other day; GA101, 30 mg/kg, intraperitoneal injection, twice a week. The tumor volume and mouse body weight were measured every 3 days.
# as §1, §2
# A549 tumors = details: Herceptin 10 mg/kg intraperitoneal combined with Her2 D4-pHLIP 40 μM/100 μl intravenous, nude mice
# Procedure: A549 was inoculated into nude mice, when the tumor diameter grew to 1 cm, the tumor was aseptically peeled off, shredded, homogenized, and sieved to make a single cell suspension which was cultured and amplified in 1640 complete medium. The cells were injected into the subcutaneous abdomen of the nude mice with 1×10^6 cells/body, when the tumor diameter grew to 0.5 to 1 cm, the oversized and undersized tumors were removed, and mice with substantially the same tumor size were grouped. There were 4 groups: injection group of the Her2 D4-pHLIP alone, 10; injection group of the Her2 D4-pHLIP combined with the herceptin, 10; injection group of the Her2 D4-pHLIP combined with the IgG1, 10; injection group of normal saline N. S, 10. The tumor size was measured every 3 days.
# Administration method: Her2 D4-pHLIP administration: each was injected intravenously with 40 μM/100 μl every time, starting from the day after the grouping was completed, once a day, and once every 2 days; antibody administration: Intraperitoneal injection, the dose was 10 mg/kg, the injection frequency was the same as the Her2 D4-pHLIP, and the injection time was 6 to 12 hours after the administration of the Her2 D4-pHLIP until the end.
# [1] = background art, pHLIP derivatives produced by sequence adjustment; cited from earlier work
# [2] = system: Mouse colon cancer cells CT26 tumors; details: for fluorescent marking of tumor tissues by 72 hours: 72 hours after intravenous injection; for marking of tumors (in vivo imaging): CT26 subcutaneous tumors, alexa647 marked peptide intravenously, imaging at 24, 48, 72 hours
# Procedure: Mouse colon cancer cells CT26 were subcutaneously inoculated into Balb/c mice, and when the tumors grew to about 1 cm, saline (N.S.), alexa647 marked p-var7, alexa647 marked var7 were intravenously injected respectively with a dosage of 60 μM/100 pL N. S., in vivo imaging (excitation with Cy5.5 wavelength) was performed at 24, 48, 72 hours with supine position photography. The mice were sacrificed for tumor imaging.
# [3] = system: Human colorectal cancer cell line SW480; details: for insertion into the surface of the cell (fluorescence on cell membrane): acid solution environment, PBS pH 6.3, alexa647 marked peptide; for insertion into the surface of the cell (fluorescence on cell membrane) / membrane insertion ability: 37° C. 1 hour; for membrane insertion ability: neutral solution environment, PBS pH 7.4, alexa647 marked peptide
# Procedure: (1) The SW480 cells in logarithmic phase were collected, the culture solution was discarded, and the cells were washed twice with saline. […] The cells were transferred to a 10 ml test tube to centrifuge at 1000 rpm for 5 min, the supernatant was removed, and 1 ml of RPMI 1640 medium containing 10% fetal bovine serum was added to resuspend and mix the cells. After 10 μl of the cell suspension was added to a cell counting plate and counted, a certain amount of the cell suspension was added into the laser confocal cell culture dish, which was then adjusted to a cell system of 5* 10^5, 1 ml with complete medium, and put into a cell incubator and incubated overnight.
# (2) The culture solution was prepared using 1 mol/L hydrochloric acid and a PBS buffer at pH 7.4. Hydrochloric acid was added dropwise to the PBS buffer, and finally the pH value of the buffer was titrated to 6.3.
# (3) When the SW480 cells adhered after being cultured overnight, the supernatant of the medium was removed, and the cells were washed twice with a PBS buffer at pH 7.4.
# (4) The PBS buffer in the cell culture dish was removed, 1 ml of the previously prepared mixed culture buffers of PBS at pH 6.3 and 7.4 and peptides were added to the two dishes, respectively, and 1 ml of the PBS medium at pH 7.4 without peptides was added to another control dish, and all of them were put in a 37° C. cell incubator to incubate for 1 hour.
# (5) After incubation, the supernatant of the peptide-containing PBS culture solution was removed, and the peptide-containing PBS culture solution was washed three times with peptide-free PBS buffers with different pH values in each group, and then added with a PBS buffer at pH 7.4.
# (6) The prepared cell culture dishes were placed under the laser confocal microscope (647 mm excitation wavelength) to observe the fluorescence expression on the surface of the cell membrane.
substance,measurement,setting,value
NIYNCEPANP SEKN SP S TQYCYSIQGGGSACDDQNPWRAYLDLLFPTDTLLLD LLW [CD20-var3],tumor cell growth,4T1 cells tumors,can significantly inhibit tumor cell growth
trastuzumab [Herceptin],tumor growth,A549 tumors,significantly inhibited tumor growth
ACDDQNPWRAYLDLLFPTDTLLLDLLW (listed as Homo sapiens) [var3],tumor targeting,[1],improve its tumor targeting
NIYNCEPANP SEKN SP S TQYCYSIQGGGSACEQNPIYWARYADWLF TTPLLLL DLALLVDADEG [CD20-WT],tumor cell growth,4T1 cells tumors,can significantly inhibit tumor cell growth
ACEEQNPGGGSACEEQNPWARYLEWLFPTETLLLEL [p-var7],fluorescent marking of tumor tissues by 72 hours,"[2]; CT26 tumors, Balb/c mice",still showed strong fluorescent marking
same,marking of tumors (in vivo imaging),[2]; Balb/c mice,could mark tumors
same,"marking ability, compared","[2]; p-var7 compared with var7, CT26 tumors, Balb/c mice",stronger marking ability
same,"accumulation of fluorescence in the tumor sites, persistence","[2]; previous experiment results of in vivo imaging, same dose 40 μM/100 μl intravenously",basically degraded by the third day
same,insertion into the surface of the cell (fluorescence on cell membrane),[3],could effectively insert into the surface of human colon cancer cell SW480
same,membrane insertion ability,[3],lost
same,selectivity in the acidic microenvironment,"[3]; p-var7 compared with var7, pH 6.3 vs 7.4",more selective in the acidic microenvironment of tumor tissues
NIYNCEPANP SEKN SP S TQYC Y SIQ GGG SA S EEQNPWARYLEWLFP TETLLLEL [CD20-var7],tumor cell growth,4T1 cells tumors,can significantly inhibit tumor cells growth
"ACEEQNPWARYLEWLFPTETLLLEL [var7, reference compound]",fluorescence intensity as time went by,"[2]; 24 to 72 hours, var7 compared with p-var7, CT26 tumors, Balb/c mice",decayed more significantly
same,fluorescent marking of tumor tissues by 72 hours,"[2]; CT26 tumors, Balb/c mice",only a few markers were visible in the tumor tissues
same,marking of tumors (in vivo imaging),[2]; Balb/c mice,could mark tumors
same,tumor targeting,[1],maintaining good targeting
same,insertion into the surface of the cell (fluorescence on cell membrane),[3],could effectively insert into the surface of human colon cancer cell SW480
same,membrane insertion ability,[3],retained the ability

# Source: patent publication US20210214399A1, “PH LOW INSERTION PEPTIDE AND COMPOSITION THEREOF” (priority 2017, published 2021)
